From patent US8541380B2, “C-aryl glucoside SGLT2 inhibitors and pharmaceutical compositions comprising same” (Green Cross Corporation, priority 2009, dated 2013)

Biological target: human SGLT2 (Homo sapiens (Human), UniProt P31639)
Test: hSGLT2 inhibitory activity, sodium-dependent 14C-AMG glucose transport assay in CHO cells expressing hSGLT2
Assay type: cell-based
Conditions: 14C-AMG uptake, CHO cells expressing hSGLT2, 37° C. for 2 h
Source text: Human SGLT2 (hSGLT2) gene was amplified by PCR from cDNA-Human Adult Normal Tissue Kidney (Invitrogen, Carlsbad, Calif.). The hSGLT2 sequence was cloned into pcDNA3.1(+) for mammalian expression and were stably transfected into Chinese hamster ovary (CHO) cells. SGLT2-expressing clones were selected based on resistance to G418 antibiotic (Geneticin®, Invitrogen, Carlsbad, Calif.) and activity in the ^14C-α-methyl-D-glucopyranoside (^14C-AMG) uptake assay.
For sodium-dependent glucose transport assay, cells expressing hSGLT2 were seeded into a 96-well culture plate at a density of 5×10^4 cells/well in RPMI medium 1640 containing 10% fetal bovine serum. The cells were used 1 day after plating. They were incubated in pretreatment buffer (10 mM HEPES, 5 mM Tris, 140 mM choline chloride, 2 mM KCl, 1 mM CaCl2, and 1 mM MgCl2, pH 7.4) at 37° C. for 10 min. They were then incubated in uptake buffer (10 mM HEPES, 5 mM Tris, 140 mM NaCl, 2 mM KCl, 1 mM CaCl2, 1 mM MgCl2, and 1 mM ^14C-nonlabeled AMG pH 7.4) containing ^14C-labeled (8 uM) and inhibitor or dimethyl sulfoxide (DMSO) vehicle at 37° C. for 2 h. Cells were washed twice with washing buffer (pretreatment buffer containing 10 mM AMG at room temperature) and then the radioactivity was measured using a liquid scintillation counter.

human SGLT2, sequence (P31639 whole entry): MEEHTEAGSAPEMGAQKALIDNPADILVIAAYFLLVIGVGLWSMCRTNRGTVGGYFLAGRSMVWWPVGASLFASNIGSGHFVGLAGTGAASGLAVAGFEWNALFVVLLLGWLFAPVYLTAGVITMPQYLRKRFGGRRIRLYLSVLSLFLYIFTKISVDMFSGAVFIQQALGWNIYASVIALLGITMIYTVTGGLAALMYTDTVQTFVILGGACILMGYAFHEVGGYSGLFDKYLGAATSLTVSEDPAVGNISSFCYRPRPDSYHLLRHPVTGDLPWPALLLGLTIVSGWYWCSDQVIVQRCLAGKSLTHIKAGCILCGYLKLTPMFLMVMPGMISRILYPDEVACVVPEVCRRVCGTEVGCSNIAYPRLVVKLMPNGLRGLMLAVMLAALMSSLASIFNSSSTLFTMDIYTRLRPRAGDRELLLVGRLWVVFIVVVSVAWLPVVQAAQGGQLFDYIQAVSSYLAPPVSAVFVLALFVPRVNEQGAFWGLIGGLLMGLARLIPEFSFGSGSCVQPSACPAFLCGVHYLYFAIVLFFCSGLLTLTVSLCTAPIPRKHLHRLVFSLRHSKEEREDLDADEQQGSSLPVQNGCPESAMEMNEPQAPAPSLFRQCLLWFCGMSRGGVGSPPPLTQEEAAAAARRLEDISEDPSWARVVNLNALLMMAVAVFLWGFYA

Row | SMILES | IC50
1 | OC[C@H]1O[C@@H](c2ccc(Cl)c(Cc3nnc(-c4ccco4)s3)c2)[C@H](O)[C@@H](O)[C@@H]1O [Example 1, (2S,3R,4R,5S,6R)-2-(4-Chloro-3-((5-(furan-2-yl)-1,3,4-thiadiazol-2-yl)methyl)phenyl)-6-(hydroxymethyl)-tetrahydro-2H-pyran-3,4,5-triol] | 0.00703 µM
2 | Cc1ccc(-c2nnc(Cc3cc([C@@H]4O[C@H](CO)[C@@H](O)[C@H](O)[C@H]4O)ccc3Cl)s2)o1 [Example 2, (2S,3R,4R,5S,6R)-2-(4-Chloro-3-((5-(5-methylfuran-2-yl)-1,3,4-thiadiazol-2-yl)methyl)phenyl)-6-(hydroxymethyl)-tetrahydro-2H-pyran-3,4,5-triol] | 0.0583 µM
3 | Cc1ccoc1-c1nnc(Cc2cc([C@@H]3O[C@H](CO)[C@@H](O)[C@H](O)[C@H]3O)ccc2Cl)s1 [Example 3, (2S,3R,4R,5S,6R)-2-(4-Chloro-3-((5-(3-methylfuran-2-yl)-1,3,4-thiadiazol-2-yl)methyl)phenyl)-6-(hydroxymethyl)-tetrahydro-2H-pyran-3,4,5-triol] | 0.106 µM
4 | OC[C@H]1O[C@@H](c2ccc(Cl)c(Cc3nnc(-c4ccoc4)s3)c2)[C@H](O)[C@@H](O)[C@@H]1O [Example 4, (2S,3R,4R,5S,6R)-2-(4-Chloro-3-((5-(furan-3-yl)-1,3,4-thiadiazol-2-yl)methyl)phenyl)-6-(hydroxymethyl)tetrahydro-2H-pyran-3,4,5-triol] | 0.0177 µM
5 | OC[C@H]1O[C@@H](c2ccc(Cl)c(Cc3nnc(-c4cccs4)s3)c2)[C@H](O)[C@@H](O)[C@@H]1O [Example 5, (2S,3R,4R,5S,6R)-2-(4-Chloro-3-((5-(thiophen-2-yl)-1,3,4-thiadiazol-2-yl)methyl)phenyl)-6-(hydroxymethyl)tetrahydro-2H-pyran-3,4,5-triol] | 0.0144 µM
6 | OC[C@H]1O[C@@H](c2ccc(Cl)c(Cc3nnc(-c4cc5ccccc5s4)s3)c2)[C@H](O)[C@@H](O)[C@@H]1O [Example 6, (2S,3R,4R,5S,6R)-2-(3-((5-(Benzo[b]thiophen-2-yl)-1,3,4-thiadiazol-2-yl)methyl)-4-chlorophenyl)-6-(hydroxymethyl)-tetrahydro-2H-pyran-3,4,5-triol] | 0.0445 µM
7 | Cc1ccsc1-c1nnc(Cc2cc([C@@H]3O[C@H](CO)[C@@H](O)[C@H](O)[C@H]3O)ccc2Cl)s1 [Example 7, (2S,3R,4R,5S,6R)-2-(4-chloro-3-((5-(3-methylthiophen-2-yl)-1,3,4-thiadiazol-2-yl)methyl)phenyl)-6-(hydroxymethyl)-tetrahydro-2H-pyran-3,4,5-triol] | 0.762 µM
8 | OC[C@H]1O[C@@H](c2ccc(Cl)c(Cc3nnc(-c4ccc(Cl)s4)s3)c2)[C@H](O)[C@@H](O)[C@@H]1O [Example 8, (2S,3R,4R,5S,6R)-2-(4-Chloro-3-((5-(5-chlorothiophen-2-yl)-1,3,4-thiadiazol-2-yl)methyl)phenyl)-6-(hydroxymethyl)-tetrahydro-2H-pyran-3,4,5-triol] | 0.0182 µM
9 | OC[C@H]1O[C@@H](c2ccc(Cl)c(Cc3nnc(-c4sccc4Cl)s3)c2)[C@H](O)[C@@H](O)[C@@H]1O [Example 9, (2S,3R,4R,5S,6R)-2-(4-Chloro-3-((5-(3-chlorothiophen-2-yl)-1,3,4-thiadiazol-2-yl)methyl)phenyl)-6-(hydroxymethyl)tetrahydro-2H-pyran-3,4,5-triol] | 0.712 µM
10 | OC[C@H]1O[C@@H](c2ccc(Cl)c(Cc3nnc(-c4ccsc4)s3)c2)[C@H](O)[C@@H](O)[C@@H]1O [Example 10, (2S,3R,4R,5S,6R)-2-(4-Chloro-3-((5-(thiophen-3-yl)-1,3,4-thiadiazol-2-yl)methyl)phenyl)-6-(hydroxymethyl)tetrahydro-2H-pyran-3,4,5-triol] | 0.00351 µM
11 | Cn1cccc1-c1nnc(Cc2cc([C@@H]3O[C@H](CO)[C@@H](O)[C@H](O)[C@H]3O)ccc2Cl)s1 [Example 11, (2S,3R,4R,5S,6R)-2-(4-Chloro-3-((5-(1-methyl-1H-pyrrol-2-yl)-1,3,4-thiadiazol-2-yl)methyl)phenyl)-6-(hydroxymethyl)-tetrahydro-2H-pyran-3,4,5-triol] | 0.119 µM
